Measured values as given in the supplement of paper PMC10307832.

Tests used:
Assay in all cases: relative viability (nuclei count vs DMSO), 5 days (fraction); higher = more cells survive
[1] = compound: COC1=CC=C(C=C1)CN2C=CC3=C2C=C(C=C3)C(=O)NO + Nc1nc2[nH]cc(CCc3ccc(C(=O)N[C@@H](CCC(=O)O)C(=O)O)cc3)c2c(=O)[nH]1 [Pemetrexed] (partner 0.2 µM)
Outline: (§1)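 Each reported value is a median over duplicate plates. It expresses relative viability: treated-well nuclei count divided by vehicle-well nuclei count. Lung cancer cell lines in 1536-well plates were dosed by pin tool a day after seeding, alone with one drug or with a fixed anchor-drug dose plus five library-drug doses (not always all listed) in √10 steps, and nuclei were counted after 5 days.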

Veliparib + Lapatinib = compound: C[C@]1(c2nc3c(C(N)=O)cccc3[nH]2)CCCN1 [Veliparib] + CS(=O)(=O)CCNCc1ccc(-c2ccc3ncnc(Nc4ccc(OCc5cccc(F)c5)c(Cl)c4)c3c2)o1 [Lapatinib] (partner 2 µM)
Outline: as §1

[2] = compound: COC1=CC=C(C=C1)CN2C=CC3=C2C=C(C=C3)C(=O)NO + C[C@]1(O)C[C@@H](c2nc(-c3ccc4ccc(-c5ccccc5)nc4c3)c3c(N)nccn32)C1 [Linsitinib] (partner 1 µM)
Outline: as §1

[3] = compound: COC1=CC=C(C=C1)CN2C=CC3=C2C=C(C=C3)C(=O)NO + Cc1nc(Nc2ncc(C(=O)Nc3c(C)cccc3Cl)s2)cc(N2CCN(CCO)CC2)n1 [Dasatinib] (partner 0.075 µM)
Outline: as §1

NCI-H1648
relative viability ([1]; first compound 0.08 µM): 0.794 | relative viability ([1]; first compound 0.253 µM): 0.853 | relative viability ([1]; first compound 0.8 µM): 0.829 | relative viability ([1]; first compound 2.53 µM): 0.717 | relative viability ([1]; first compound 8 µM): 0.641

NCI-H358
relative viability (Veliparib + Lapatinib; first compound 0.06325 µM): 0.464 | relative viability (Veliparib + Lapatinib; first compound 0.2 µM): 0.503 | relative viability (Veliparib + Lapatinib; first compound 0.6325 µM): 0.393 | relative viability (Veliparib + Lapatinib; first compound 2 µM): 0.452 | relative viability ([2]; first compound 0.253 µM): 0.903 | relative viability ([2]; first compound 0.8 µM): 0.792 | relative viability ([2]; first compound 2.53 µM): 0.742 | relative viability ([2]; first compound 8 µM): 0.851 | relative viability ([3]; first compound 0.253 µM): 0.152 | relative viability ([3]; first compound 0.8 µM): 0.192 | relative viability ([3]; first compound 2.53 µM): 0.157 | relative viability ([3]; first compound 8 µM): 0.126 | relative viability ([1]; first compound 0.253 µM): 0.161 | relative viability ([1]; first compound 0.8 µM): 0.161 | relative viability ([1]; first compound 2.53 µM): 0.167 | relative viability ([1]; first compound 8 µM): 0.164

IA-LM
relative viability (Veliparib + Lapatinib; first compound 0.02 µM): 0.85 | relative viability (Veliparib + Lapatinib; first compound 0.06325 µM): 0.561 | relative viability (Veliparib + Lapatinib; first compound 0.2 µM): 0.771 | relative viability (Veliparib + Lapatinib; first compound 0.6325 µM): 0.846 | relative viability (Veliparib + Lapatinib; first compound 2 µM): 1.04 | relative viability ([2]; first compound 0.08 µM): 0.613 | relative viability ([2]; first compound 0.253 µM): 0.587 | relative viability ([2]; first compound 0.8 µM): 0.492 | relative viability ([2]; first compound 2.53 µM): 0.698 | relative viability ([2]; first compound 8 µM): 0.663

201T
relative viability (Veliparib + Lapatinib; first compound 0.02 µM): 1 | relative viability (Veliparib + Lapatinib; first compound 0.06325 µM): 1.03 | relative viability (Veliparib + Lapatinib; first compound 0.2 µM): 1.04 | relative viability (Veliparib + Lapatinib; first compound 0.6325 µM): 1.05 | relative viability (Veliparib + Lapatinib; first compound 2 µM): 0.995 | relative viability ([2]; first compound 0.08 µM): 1.04 | relative viability ([2]; first compound 0.253 µM): 1.01 | relative viability ([2]; first compound 0.8 µM): 1.13 | relative viability ([2]; first compound 2.53 µM): 1.06 | relative viability ([2]; first compound 8 µM): 1.03 | relative viability ([3]; first compound 0.08 µM): 0.625 | relative viability ([3]; first compound 0.253 µM): 0.662 | relative viability ([3]; first compound 0.8 µM): 0.607 | relative viability ([3]; first compound 2.53 µM): 0.573 | relative viability ([3]; first compound 8 µM): 0.545 | relative viability ([1]; first compound 0.08 µM): 0.314 | relative viability ([1]; first compound 0.253 µM): 0.349 | relative viability ([1]; first compound 0.8 µM): 0.322 | relative viability ([1]; first compound 2.53 µM): 0.333 | relative viability ([1]; first compound 8 µM): 0.324

LOU-NH91
relative viability (Veliparib + Lapatinib; first compound 0.02 µM): 0.708 | relative viability (Veliparib + Lapatinib; first compound 0.06325 µM): 0.656 | relative viability (Veliparib + Lapatinib; first compound 0.2 µM): 0.82 | relative viability (Veliparib + Lapatinib; first compound 0.6325 µM): 0.735 | relative viability (Veliparib + Lapatinib; first compound 2 µM): 0.781 | relative viability ([2]; first compound 0.08 µM): 0.74 | relative viability ([2]; first compound 0.253 µM): 0.995 | relative viability ([2]; first compound 0.8 µM): 1.04 | relative viability ([2]; first compound 2.53 µM): 0.954 | relative viability ([2]; first compound 8 µM): 0.913 | relative viability ([3]; first compound 0.08 µM): 0.516 | relative viability ([3]; first compound 0.253 µM): 0.532 | relative viability ([3]; first compound 0.8 µM): 0.54 | relative viability ([3]; first compound 2.53 µM): 0.593 | relative viability ([3]; first compound 8 µM): 0.523 | relative viability ([1]; first compound 0.253 µM): 0.417 | relative viability ([1]; first compound 0.8 µM): 0.346 | relative viability ([1]; first compound 2.53 µM): 0.372 | relative viability ([1]; first compound 8 µM): 0.391

ChaGo-K-1
relative viability ([3]; first compound 0.253 µM): 0.589 | relative viability ([3]; first compound 0.8 µM): 0.631 | relative viability ([3]; first compound 2.53 µM): 0.584 | relative viability ([3]; first compound 8 µM): 0.486 | relative viability ([1]; first compound 0.253 µM): 0.266 | relative viability ([1]; first compound 0.8 µM): 0.275 | relative viability ([1]; first compound 2.53 µM): 0.262 | relative viability ([1]; first compound 8 µM): 0.255

NCI-H441
relative viability ([2]; first compound 0.08 µM): 0.304 | relative viability ([2]; first compound 0.253 µM): 0.676 | relative viability ([2]; first compound 0.8 µM): 0.573 | relative viability ([2]; first compound 2.53 µM): 0.579 | relative viability ([2]; first compound 8 µM): 0.42 | relative viability ([3]; first compound 0.08 µM): 0.613 | relative viability ([3]; first compound 0.253 µM): 0.621 | relative viability ([3]; first compound 0.8 µM): 0.623 | relative viability ([3]; first compound 2.53 µM): 0.567 | relative viability ([3]; first compound 8 µM): 0.485 | relative viability ([1]; first compound 0.08 µM): 0.26 | relative viability ([1]; first compound 0.253 µM): 0.264 | relative viability ([1]; first compound 0.8 µM): 0.273 | relative viability ([1]; first compound 2.53 µM): 0.278 | relative viability ([1]; first compound 8 µM): 0.261

ABC-1
relative viability (Veliparib + Lapatinib; first compound 0.06325 µM): 1.17 | relative viability (Veliparib + Lapatinib; first compound 0.2 µM): 1.18 | relative viability (Veliparib + Lapatinib; first compound 0.6325 µM): 0.878 | relative viability (Veliparib + Lapatinib; first compound 2 µM): 1.1 | relative viability ([2]; first compound 0.253 µM): 0.924 | relative viability ([2]; first compound 0.8 µM): 0.789 | relative viability ([2]; first compound 2.53 µM): 0.732 | relative viability ([2]; first compound 8 µM): 0.885 | relative viability ([3]; first compound 0.253 µM): 0.566 | relative viability ([3]; first compound 0.8 µM): 0.589 | relative viability ([3]; first compound 2.53 µM): 0.676 | relative viability ([3]; first compound 8 µM): 0.488

NCI-H661
relative viability (Veliparib + Lapatinib; first compound 0.02 µM): 0.413 | relative viability (Veliparib + Lapatinib; first compound 0.06325 µM): 0.483 | relative viability (Veliparib + Lapatinib; first compound 0.2 µM): 0.56 | relative viability (Veliparib + Lapatinib; first compound 0.6325 µM): 0.447 | relative viability (Veliparib + Lapatinib; first compound 2 µM): 0.533 | relative viability ([2]; first compound 0.253 µM): 0.525 | relative viability ([2]; first compound 0.8 µM): 0.555 | relative viability ([2]; first compound 2.53 µM): 0.521 | relative viability ([2]; first compound 8 µM): 0.46 | relative viability ([3]; first compound 0.253 µM): 0.985 | relative viability ([3]; first compound 0.8 µM): 0.957 | relative viability ([3]; first compound 2.53 µM): 0.802 | relative viability ([3]; first compound 8 µM): 0.579 | relative viability ([1]; first compound 0.253 µM): 0.889 | relative viability ([1]; first compound 0.8 µM): 0.836 | relative viability ([1]; first compound 2.53 µM): 0.957 | relative viability ([1]; first compound 8 µM): 0.954

BEN
relative viability (Veliparib + Lapatinib; first compound 0.02 µM): 0.445 | relative viability (Veliparib + Lapatinib; first compound 0.06325 µM): 0.72 | relative viability (Veliparib + Lapatinib; first compound 0.2 µM): 0.777 | relative viability (Veliparib + Lapatinib; first compound 0.6325 µM): 0.824 | relative viability (Veliparib + Lapatinib; first compound 2 µM): 0.81 | relative viability ([2]; first compound 0.08 µM): 0.87 | relative viability ([2]; first compound 0.253 µM): 0.875 | relative viability ([2]; first compound 0.8 µM): 0.904 | relative viability ([2]; first compound 2.53 µM): 0.869 | relative viability ([2]; first compound 8 µM): 0.907 | relative viability ([3]; first compound 0.08 µM): 0.305 | relative viability ([3]; first compound 0.253 µM): 0.264 | relative viability ([3]; first compound 0.8 µM): 0.297 | relative viability ([3]; first compound 2.53 µM): 0.347 | relative viability ([3]; first compound 8 µM): 0.317 | relative viability ([1]; first compound 0.08 µM): 0.729 | relative viability ([1]; first compound 0.253 µM): 0.615 | relative viability ([1]; first compound 0.8 µM): 0.921 | relative viability ([1]; first compound 2.53 µM): 0.725 | relative viability ([1]; first compound 8 µM): 0.661

UMC-11
relative viability (Veliparib + Lapatinib; first compound 0.02 µM): 0.893 | relative viability (Veliparib + Lapatinib; first compound 0.06325 µM): 1 | relative viability (Veliparib + Lapatinib; first compound 0.2 µM): 0.841 | relative viability (Veliparib + Lapatinib; first compound 0.6325 µM): 1.09 | relative viability (Veliparib + Lapatinib; first compound 2 µM): 1.07 | relative viability ([2]; first compound 0.08 µM): 0.891 | relative viability ([2]; first compound 0.253 µM): 0.974 | relative viability ([2]; first compound 0.8 µM): 1.06 | relative viability ([2]; first compound 2.53 µM): 0.959 | relative viability ([2]; first compound 8 µM): 0.938 | relative viability ([3]; first compound 0.253 µM): 0.454 | relative viability ([3]; first compound 0.8 µM): 0.422 | relative viability ([3]; first compound 2.53 µM): 0.471 | relative viability ([3]; first compound 8 µM): 0.44 | relative viability ([1]; first compound 0.08 µM): 0.568 | relative viability ([1]; first compound 0.253 µM): 0.854 | relative viability ([1]; first compound 0.8 µM): 0.823 | relative viability ([1]; first compound 2.53 µM): 0.793 | relative viability ([1]; first compound 8 µM): 0.784
